The test system of this data set is CCRIS mutagenicity, Ames/micronucleus/aberration tests. Kind of data set: CCRIS mutagenicity studies.
Where [1] appears, read: Test System: AMES SALMONELLA TYPHIMURIUM, Strain/Indicator: TA98, Metabolic Activation: NONE, Method: STANDARD PLATE.
The mark [2] stands for this setting: Test System: AMES SALMONELLA TYPHIMURIUM, Strain/Indicator: TA100, Metabolic Activation: NONE, Method: STANDARD PLATE.
Where [3] appears, read: Test System: AMES SALMONELLA TYPHIMURIUM, Strain/Indicator: TA1535, Metabolic Activation: NONE, Method: STANDARD PLATE.
The mark [4] stands for this setting: Test System: AMES SALMONELLA TYPHIMURIUM, Strain/Indicator: TA1537, Metabolic Activation: NONE, Method: STANDARD PLATE.
Setting [5] is: Test System: AMES SALMONELLA TYPHIMURIUM, Strain/Indicator: TA98, Metabolic Activation: RAT, LIVER, S-9, AROCLOR 1254, Method: STANDARD PLATE.
Where [6] appears, read: Test System: AMES SALMONELLA TYPHIMURIUM, Strain/Indicator: TA100, Metabolic Activation: RAT, LIVER, S-9, AROCLOR 1254, Method: STANDARD PLATE.

Activity calls are given as the source filed them. The rule behind the calls is not given here.

Take `CCC(=O)Oc1ccc(/C(CC)=C(\CC)c2ccc(OC(=O)CC)cc2)cc1`: the mutagenic call runs as follows: under setting [1], “inactive; negative”; (Test System: AMES SALMONELLA TYPHIMURIUM, Strain/Indicator: TA98, Metabolic Activation: RAT, LIVER, S-9, Method: STANDARD PLATE) “inactive; negative”; under setting [2], “inactive; negative”; (Test System: AMES SALMONELLA TYPHIMURIUM, Strain/Indicator: TA100, Metabolic Activation: RAT, LIVER, S-9, Method: STANDARD PLATE) “inactive; negative”; under setting [3], “inactive; negative”; (Test System: AMES SALMONELLA TYPHIMURIUM, Strain/Indicator: TA1535, Metabolic Activation: RAT, LIVER, S-9, Method: STANDARD PLATE) “inactive; negative”. Besides, the mutagenic call reads like this: under setting [4], “inactive; negative”; (Test System: AMES SALMONELLA TYPHIMURIUM, Strain/Indicator: TA1537, Metabolic Activation: RAT, LIVER, S-9, Method: STANDARD PLATE) “inactive; negative”; (Test System: AMES SALMONELLA TYPHIMURIUM, Strain/Indicator: TA1538, Metabolic Activation: NONE, Method: STANDARD PLATE) “inactive; negative”; (Test System: AMES SALMONELLA TYPHIMURIUM, Strain/Indicator: TA1538, Metabolic Activation: RAT, LIVER, S-9, Method: STANDARD PLATE) “inactive; negative”.

For the compound `CCCCS(=O)(=O)n1ncc(Cl)c(Cl)c1=O`, the mutagenic call under setting [1] is “inactive; negative”; the mutagenic call under setting [5] is “inactive; negative”; the mutagenic call under setting [2] is “active; positive”; the mutagenic call under setting [6] is “active; positive”; the mutagenic call under setting [3] was “inactive; negative”; the mutagenic call (Test System: AMES SALMONELLA TYPHIMURIUM, Strain/Indicator: TA1535, Metabolic Activation: RAT, LIVER, S-9, AROCLOR 1254, Method: STANDARD PLATE) is “active; positive”. Besides, the mutagenic call reads like this: under setting [4], “inactive; negative”; (Test System: AMES SALMONELLA TYPHIMURIUM, Strain/Indicator: TA1537, Metabolic Activation: RAT, LIVER, S-9, AROCLOR 1254, Method: STANDARD PLATE) “inactive; negative”.

In the case of `CCCCN(CC(C)=O)N=O`, where the note is “Test System: AMES SALMONELLA TYPHIMURIUM, Strain/Indicator: TA1535, Metabolic Activation: RAT, LIVER, S-9, KC500 OR PHENOBARBITAL, Method: LIQUID SUSPENSION”, the mutagenic call was “active; positive”.

On to `Nc1ccc(Cc2ccc(N)cc2)cc1`, for which the mutagenic call (End Point: IN VIVO MICRONUCLEUS, Test System: PERIPHERAL BLOOD RETICULOCYTES, Species: RAT, Strain/Sex: FISHER 344 OR SD/MALE, Route: ORAL OR IP) is “inactive; negative”; the mutagenic call (Test System: AMES SALMONELLA TYPHIMURIUM, Strain/Indicator: TA97, Metabolic Activation: HAMSTER, LIVER, S-9, AROCLOR 1254 (10%), Method: PREINCUBATION) was “active; positive”; the mutagenic call (Test System: AMES SALMONELLA TYPHIMURIUM, Strain/Indicator: TA97, Metabolic Activation: NONE, Method: PREINCUBATION) is “inactive; negative”; the mutagenic call (Test System: AMES SALMONELLA TYPHIMURIUM, Strain/Indicator: TA98, Metabolic Activation: HAMSTER, LIVER, S-9, AROCLOR 1254 (10%), Method: PREINCUBATION) was “active; positive”; the mutagenic call (Test System: AMES SALMONELLA TYPHIMURIUM, Strain/Indicator: TA98, Metabolic Activation: NONE, Method: PREINCUBATION) was “inactive; negative”; the mutagenic call under setting [1] was “inactive; negative”. Also, the mutagenic call was “active; positive” under setting [5]; “active; positive” (Test System: AMES SALMONELLA TYPHIMURIUM, Strain/Indicator: TA98, Metabolic Activation: RAT, LIVER, S-9, PCB, Method: PREINCUBATION); “active; positive” (Test System: AMES SALMONELLA TYPHIMURIUM, Strain/Indicator: TA98, Metabolic Activation: RAT, LIVER, S-9, PCB, Method: STANDARD PLATE); “inactive; negative” (Test System: AMES SALMONELLA TYPHIMURIUM, Strain/Indicator: TA98, Metabolic Activation: RAT, LIVER, S-9, PHENOBARBITAL, Method: PREINCUBATION); “active; positive” (Test System: AMES SALMONELLA TYPHIMURIUM, Strain/Indicator: TA100, Metabolic Activation: HAMSTER, LIVER, S-9, AROCLOR 1254 (10%), Method: PREINCUBATION); “inactive; negative” (Test System: AMES SALMONELLA TYPHIMURIUM, Strain/Indicator: TA100, Metabolic Activation: NONE, Method: PREINCUBATION). Moreover, the mutagenic call is, setting by setting: under setting [2], “inactive; negative”; (Test System: AMES SALMONELLA TYPHIMURIUM, Strain/Indicator: TA100, Metabolic Activation: RAT, LIVER, S-9, AROCLOR 1254 (10%), Method: PREINCUBATION) “active; positive”; under setting [6], “active; positive”; (Test System: AMES SALMONELLA TYPHIMURIUM, Strain/Indicator: TA100, Metabolic Activation: RAT, LIVER, S-9, PCB, Method: PREINCUBATION) “active; positive”; (Test System: AMES SALMONELLA TYPHIMURIUM, Strain/Indicator: TA100, Metabolic Activation: RAT, LIVER, S-9, PCB, Method: STANDARD PLATE) “active; positive”; (Test System: AMES SALMONELLA TYPHIMURIUM, Strain/Indicator: TA100, Metabolic Activation: RAT, LIVER, S-9, PHENOBARBITAL, Method: PREINCUBATION) “active; positive”. The mutagenic call is “active; positive” (Test System: AMES SALMONELLA TYPHIMURIUM, Strain/Indicator: TA1535, Metabolic Activation: HAMSTER, LIVER, S-9, AROCLOR 1254 (5 OR 30%), Method: PREINCUBATION); “active; positive” (Test System: AMES SALMONELLA TYPHIMURIUM, Strain/Indicator: TA1535, Metabolic Activation: HAMSTER, LIVER, S-9, AROCLOR 1254 (10%), Method: PREINCUBATION); “inactive; negative” (Test System: AMES SALMONELLA TYPHIMURIUM, Strain/Indicator: TA1535, Metabolic Activation: NONE, Method: PREINCUBATION); “inactive; negative” (Test System: AMES SALMONELLA TYPHIMURIUM, Strain/Indicator: TA1535, Metabolic Activation: RAT, LIVER, S-9, AROCLOR 1254 (10%), Method: PREINCUBATION); “inactive; negative” (Test System: E. COLI, Strain/Indicator: WP2 UVRA, Metabolic Activation: HAMSTER, LIVER, S-9, AROCLOR 1254, Method: STANDARD PLATE); “inactive; negative” (Test System: E. COLI, Strain/Indicator: WP2 UVRA, Metabolic Activation: HAMSTER, LIVER, S-9, Method: STANDARD PLATE). In addition, the mutagenic call was “inactive; negative” (Test System: E. COLI, Strain/Indicator: WP2 UVRA, Metabolic Activation: MOUSE, LIVER, S-9, AROCLOR 1254, Method: STANDARD PLATE); “inactive; negative” (Test System: E. COLI, Strain/Indicator: WP2 UVRA, Metabolic Activation: MOUSE, LIVER, S-9, Method: STANDARD PLATE); “inactive; negative” (Test System: E. COLI, Strain/Indicator: WP2 UVRA, Metabolic Activation: NONE, Method: STANDARD PLATE); “inactive; negative” (Test System: E. COLI, Strain/Indicator: WP2 UVRA, Metabolic Activation: RAT, LIVER, S-9, AROCLOR 1254, Method: STANDARD PLATE); “inactive; negative” (Test System: E. COLI, Strain/Indicator: WP2 UVRA, Metabolic Activation: RAT, LIVER, S-9, Method: STANDARD PLATE); “inactive; negative” (Test System: UDS RAT HEPATOCYTES, Strain/Indicator: BROMODEOXYURIDINE INCORP, Metabolic Activation: NONE, Method: FLOW CYTOMETRIC ANALYSIS). Moreover, for the setting “Test System: UDS RAT HEPATOCYTES, Strain/Indicator: THY INCORP, Metabolic Activation: NONE, Method: AUTORADIOGRAPHY”, the mutagenic call was “inactive; negative”.

For the compound `O=C(O)/C=C/Cl`, the mutagenic call is “active; positive” (Test System: AMES SALMONELLA TYPHIMURIUM, Strain/Indicator: TA97, Metabolic Activation: RAT, LIVER, S-9, PCB, Method: STANDARD PLATE) and “active; positive” (Test System: AMES SALMONELLA TYPHIMURIUM, Strain/Indicator: TA102, Metabolic Activation: RAT, LIVER, S-9, PCB, Method: STANDARD PLATE).

Consider `Nc1cccc2cnsc12`, for which the mutagenic call under setting [1] is “active; positive”.

(Values after PubChem BioAssay AID1259407 (Chemical Carcinogenesis Research Information System (CCRIS), 2018).)
